Experimental findings from US20230085307A1, “PYRIDAZINONE COMPOUND AND HERBICIDE” (NISSAN CHEMICAL CORPORATION, priority 2019, published 2023) are described below.

One series deals with corn. The experiment in a line: Test Example 5: effect on crop by foliage application, plastic box (Table 20, symbol c). The format is in vivo. To be noted: AAH 320 g/ha, three weeks after application. The essentials: (§1)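 Plants sown in sterilized diluvial soil and grown 14 days in a greenhouse at 25° C to 30° C, then sprayed on the foliage with the compound's emulsion diluted in water to a predetermined herbicide amount. Injury to weeds and crops scored three weeks after application on a visual rating scale.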

For the next series, the system named is wheat. The experiment in a line: Test Example 5: effect on crop by foliage application, plastic box (Table 20, symbol e). The format is in vivo. The conditions noted are these: AAH 320 g/ha, three weeks after application. An excerpt:
(§2) [Test Example 5] Herbicidal Effect Test by Foliage Application
(§3) Sterilized diluvial soil was placed in a plastic box having a length of 21 cm, a width of 13 cm, and a depth of 7 cm. The seeds of each of southern crabgrass, green foxtail, barnyard grass, wild oat, blackgrass, Italian ryegrass, windgrass, velvetleaf, redroot pigweed, lambsquarters, chickweed, false cleavers, persian speedwell, corn, soybean, rice, wheat, beet, and rapeseed were sowed in a spot-like manner and covered with the soil having a thickness of about 1.5 cm. Thereafter, the plants were grown in a greenhouse at 25° C. to 30° C. After 14-day growth of the plants, the emulsion agent of the compound of the present invention prepared according to Formulation Example 2 was diluted with water so as to achieve a predetermined herbicide amount, and the diluted emulsion agent was uniformly applied to a foliage part with a small-sized spray. Three weeks after the herbicide application, the effect of the herbicide on each plant was evaluated according to the criteria of Test Example 1.

A further series concerns Italian ryegrass. The experiment in a line: Test Example 5: herbicidal effect by foliage application, plastic box (Table 20, symbol K). The format is in vivo, Italian ryegrass (Lolium multiflorum). To be noted: foliage application, AAH 320 g/ha, three weeks after application. The essentials:
as §1

Another series has as its system velvetleaf. The experiment in a line: Test Example 4: herbicidal effect by soil treatment (Table 19, symbol M). To be noted: amount of applied herbicide 320 g/ha. The format is in vivo, velvetleaf (Abutilon theophrasti). The essentials:
(§4)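 Seeds were sown in sterilized diluvial soil and covered with about 1.5 cm of soil. An emulsion formulation diluted with water to a predetermined herbicide amount was sprayed evenly onto the soil surface. Plants grew in a greenhouse at 25° C. to 30° C., and the effect was scored three weeks after application using criteria from an earlier test.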

Series [1] deals with southern crabgrass. The experiment in a line: Test Example 5: herbicidal effect by foliage application, plastic box (Table 20, symbol F). In kind it is in vivo, southern crabgrass (Digitaria ciliaris). To be noted: foliage application, AAH 320 g/ha, three weeks after application. The essentials: as §1
Series [2] relates to green foxtail. The experiment in a line: Test Example 5: herbicidal effect by foliage application, plastic box (Table 20, symbol G). In kind it is in vivo, green foxtail (Setaria viridis). The conditions noted are these: foliage application, AAH 320 g/ha, three weeks after application. The essentials:
as §1

The subject of series [3] is barnyard grass. The experiment in a line: Test Example 3: herbicidal effect by foliage application, Wagner pot (Table 18, symbol H). The format is in vivo, barnyard grass (Echinochloa crus-galli). To be noted: 320 g/ha. The essentials: (§5)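 Plants were sown in alluvial soil held under 0.1–0.5 cm standing water and grown 14 days in a greenhouse at 25–30 °C. An emulsifiable formulation, water-diluted to the set dose, was then sprayed onto the foliage, and effects were scored three weeks later using previously defined criteria.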

The subject of series [4] is persian speedwell. The experiment in a line: Test Example 5: herbicidal effect by foliage application, plastic box (Table 20, symbol R). To be noted: foliage application, AAH 320 g/ha, three weeks after application. In kind it is in vivo, Persian speedwell (Veronica persica). The essentials: as §1
A further series deals with chickweed. The experiment in a line: Test Example 5: herbicidal effect by foliage application, plastic box (Table 20, symbol P). The format is in vivo, common chickweed (Stellaria media). To be noted: foliage application, AAH 320 g/ha, three weeks after application. The essentials: as §1
Series [5] concerns beet. The experiment in a line: Test Example 4: effect on crop by soil treatment (Table 19, symbol f). The format is in vivo. The conditions noted are these: amount of applied herbicide 320 g/ha.
Description: [Test Example 4] Herbicidal Effect Test by Soil Treatment
as §3, with “Subsequently,” for “Thereafter, the plants were grown in a greenhouse at 25° C. to 30° C. After 14-day growth of the plants,”, “the surface of the soil” for “a foliage part”, “spray. The plastic box was placed in a greenhouse at 25° C. to 30° C. for growth of the plants.” for “spray.”

Series [6] relates to southern crabgrass. The experiment in a line: Test Example 4: herbicidal effect by soil treatment (Table 19, symbol F). The conditions noted are these: amount of applied herbicide 320 g/ha. The format is in vivo, southern crabgrass (Digitaria ciliaris). The essentials: as §4
In a further series the test system is rapeseed. The experiment in a line: Test Example 4: effect on crop by soil treatment (Table 19, symbol g). The conditions noted are these: amount of applied herbicide 320 g/ha. The format is in vivo. The essentials: as §4
Series [7] concerns persian speedwell. The experiment in a line: Test Example 4: herbicidal effect by soil treatment (Table 19, symbol R). The conditions noted are these: amount of applied herbicide 320 g/ha. The format is in vivo, Persian speedwell (Veronica persica). The essentials:
as §4

The subject of a further series is Chinese sprangletop. The experiment in a line: Test Example 3: herbicidal effect by foliage application, Wagner pot (Table 18, symbol D). The format is in vivo, chinese sprangletop (Leptochloa chinensis). To be noted: 320 g/ha. The essentials:
as §5

Series [8] deals with beet. The experiment in a line: Test Example 5: effect on crop by foliage application, plastic box (Table 20, symbol f). In kind it is in vivo. To be noted: AAH 320 g/ha, three weeks after application.
Description: as §2, §3

For series [9], the system named is green foxtail. The experiment in a line: Test Example 4: herbicidal effect by soil treatment (Table 19, symbol G). In kind it is in vivo, green foxtail (Setaria viridis). To be noted: amount of applied herbicide 320 g/ha. The essentials: as §4
The test system of a further series is blackgrass. The experiment in a line: Test Example 4: herbicidal effect by soil treatment (Table 19, symbol J). The format is in vivo, blackgrass (Alopecurus myosuroides). The conditions noted are these: amount of applied herbicide 320 g/ha. The essentials:
as §4

Another series has as its system redroot pigweed. The experiment in a line: Test Example 5: herbicidal effect by foliage application, plastic box (Table 20, symbol N). The format is in vivo, redroot pigweed (Amaranthus retroflexus). The conditions noted are these: foliage application, AAH 320 g/ha, three weeks after application. The essentials:
as §1

Series [10] has as its system barnyard grass. The experiment in a line: Test Example 4: herbicidal effect by soil treatment (Table 19, symbol H). The conditions noted are these: amount of applied herbicide 320 g/ha. In kind it is in vivo, barnyard grass (Echinochloa crus-galli). The essentials: as §4
The subject of a further series is windgrass. The experiment in a line: Test Example 5: herbicidal effect by foliage application, plastic box (Table 20, symbol L). The format is in vivo, windgrass (Apera spica-venti). The conditions noted are these: foliage application, AAH 320 g/ha, three weeks after application. The essentials:
as §1

Turning to `Cc1nn(C)c(=O)c(-c2c(-n3cc(Cl)cn3)sc3ccccc23)c1O` [Compound No. 1-097, 5-hydroxy-2,6-dimethyl-4-(2-(4-chloro-1H-pyrazol-1-yl)benzo[b]thiophen-3-yl)pyridazin-3(2H)-one], in the series with corn, the “c: corn, effect on crop” value is 0 (Herbicidal rate of 5% or less (almost no effect)). The “e: wheat, effect on crop” value in the series with wheat is listed as 0 (Herbicidal rate of 5% or less (almost no effect)). In addition, in the series with Italian ryegrass, the “K: Italian ryegrass, herbicidal effect” value was 2 (Herbicidal rate of 20% or more and less than 40%). Besides, in the series on velvetleaf, the “herbicidal effect rating, M: velvetleaf” value is 1 (Herbicidal rate of 5% or more and less than 20%). For the same molecule, in the series with southern crabgrass [1], the “F: southern crabgrass, herbicidal effect” value was 0 (Herbicidal rate of 5% or less (almost no effect)). For the same molecule, in the series on green foxtail [2], the “G: green foxtail, herbicidal effect” value is reported as 0 (Herbicidal rate of 5% or less (almost no effect)). Moreover, in the series on barnyard grass [3], the “herbicidal effect on H (barnyard grass), rating 0-5” value was 0 (Herbicidal rate of 5% or less (almost no effect)). Besides, in the series on persian speedwell [4], the “R: persian speedwell, herbicidal effect” value was 0 (Herbicidal rate of 5% or less (almost no effect)). Further, the “P: chickweed, herbicidal effect” value in the series with chickweed was 5 (Herbicidal rate of 90% or more (almost completely withered)). In addition, in the series on beet [5], the “effect rating on crop, f: beet” value is given as 0 (Herbicidal rate of 5% or less (almost no effect)). Further, the “herbicidal effect rating, F: southern crabgrass” value with southern crabgrass [6] was 0 (Herbicidal rate of 5% or less (almost no effect)). Further, the “effect rating on crop, g: rapeseed” value with rapeseed is reported as 0 (Herbicidal rate of 5% or less (almost no effect)). For the same molecule, the “herbicidal effect rating, R: persian speedwell” value in the series with persian speedwell [7] is 0 (Herbicidal rate of 5% or less (almost no effect)). Further, the “herbicidal effect on D (Chinese sprangletop), rating 0-5” value with Chinese sprangletop is reported as 0 (Herbicidal rate of 5% or less (almost no effect)). The “f: beet, effect on crop” value in the series with beet [8] is on record as 5 (Herbicidal rate of 90% or more (almost completely withered)). Also, the “herbicidal effect rating, G: green foxtail” value with green foxtail [9] is on record as 0 (Herbicidal rate of 5% or less (almost no effect)). Moreover, the “herbicidal effect rating, J: blackgrass” value in the series with blackgrass is reported as 0 (Herbicidal rate of 5% or less (almost no effect)). Also, the “N: redroot pigweed, herbicidal effect” value in the series with redroot pigweed is 3 (Herbicidal rate of 40% or more and less than 70%). For the same molecule, the “herbicidal effect rating, H: barnyard grass” value in the series on barnyard grass [10] is reported as 0 (Herbicidal rate of 5% or less (almost no effect)). Besides, the “L: windgrass, herbicidal effect” value with windgrass is 0 (Herbicidal rate of 5% or less (almost no effect)).
